EP0472573B1, “HERBICIDE RESISTANT MAIZE” (ZENECA LIMITED, priority 1989, dated 1990)
Like-named read-outs stand apart in the source and are kept apart here.

Assays:
[1] = target: ALS (acetolactate synthase), Wild type; assay: ALS enzyme assay, wild-type control; assay type: biochemical, Zea mays; settings: read-out: ID50% (the source's name)
Method: (§1) Seeds of generation M₁BC₁ M₁BC₂ of the nine mutants were sprayed pre-emergence with the herbicide imazethapyr (PURSUIT) (Trade Mark) at a rate of 250 g/ha and grown in a growth chamber (16 hour day, 27°C; 8 hour night, 17°C). Plants were harvested after 11 days.
(§2) Four grams of leaf material were harvested from just above the first leaf axis and ground in a mortar and pestle in 20ml of a solution containing 40mM Tricine (Trade Mark), 10mM EDTA, 5mM pyruvate, 80 »M flavin adenine dinucleotide (FAD), 1mM dithiothreitol (DTT), pH 8, plus 0.8g Polyclar AT. The homogenate was pressed through four layers of muslin and centrifuged at 30,000g for 20 minutes.
(§3) The supernatant was brought to 65% saturation with ammonium sulphate, left to precipitate for 30 minutes and then centrifuged at 30.000g for 20 minutes. The pellet was resuspended in 2.5ml of 40mM Tricine, 10mM EDTA, 5mM pyruvate, 80»M FAD, 25% (v/v) glycerol, 1mM DTT, pH 8, and desalted into 3.5ml of 40mM Tricine, 10mM EDTA, 25% (v/v) glycerol, 1mM DTT, pH 8.
(§4) One hundred microlitres of the enzyme extract was used for each assay. Final reagent concentrations were: 120mM Tricine, 50mM pyruvate, 10mM MgCl₂, […], 93»M thiamine pyrophosphate (TPP), pH 8, in the presence or absence of a herbicide of interest, in a volume of 750 »l. Incubations were carried out at 37°C for 30 minutes. Reactions were stopped with 250»l of 1.84M sulphuric acid, and decarboxylation of the acetolactate carried out at 37°C for 75 minutes, or at 60°C for 30 minutes. Assay blanks had sulphuric acid added prior to the enzyme extract. To the samples and blanks 650»l of α-naphthol in 2.73M NaOH/0.16%(w/v) creatine were added followed by incubation at 37°C for 30 minutes. After centrifugation at 30,000g the optical density of the supernatant was read at 540nm.
(§5) The assay procedure described was carried out on ALS enzyme extracted from each of the nine mutants for the following herbicides: imazethapyr (PURSUIT) imazapyr (ARSENAL) imazaquin (SCEPTER) chlorsulfuron (GLEAN) chlorimuron (CLASSIC) […] (HARMONY) The enzyme activity graphs are given as Figures 3 to 8. In addition, homozygous lines of mutants 1 and 2 which were selected from generation M₁BC₁S₂, were also tested against the same group of herbicides and against representatives of the triazolopyrimidines and phenoxypyrimidines. The chemical structures of these herbicides are shown in Figure 2 of the accompanying drawings.
(§6) From the enzyme assay data it is possible to derive, as a measure of the degree of inhibition the factor ID50% for each mutant and for each herbicide. This factor is indicative of the herbicide concentration which gives 50% inhibition of the ALS activity in comparison with the wild-type control. It is also possible to derive the fold increase in resistance.

[2] = target: ALS enzyme extracted from Mutant 3 (heterozygous); assay: ALS enzyme assay, heterozygous Mutant 3; assay type: biochemical, Zea mays; settings: for IC50: ALS of heterozygous Mutant 3, read-out: ID50% (the source's name); for resistance group, Enzyme Assay: Mutant 3, groups Strong, Intermediate, Weak, Zero; for Fold Increase: fold increase in resistance vs wild type, heterozygous Mutant 3, 30 min
Method: as §1, §2, §3, §4, §5, §6

Mutant 3 plants = assay: Cross-resistance testing (glasshouse dose response), Mutant 3; assay type: in vivo, Zea mays; settings: pre-emergence spray, assessed after four weeks growth
Text: (§7) The seeds used in this screen were populations of mixed tolerant and sensitive seed, segregating 1:1, derived from each of the heterogygous, tolerant mutants crossed with homozygous, sensitive UE95. All of the tolerant progeny are heterozygous for tolerance. Each of the mutants identified above were used except mutant 4. The controls were seed of self-pollinated UE95 which was pollinated in the same year as the tolerant lines.
(§8) One litre of compost was placed in each seed tray of dimensions 19cm x 11cm x 5cm deep and firmed down flat. Two furrows 1 cm deep were drawn in the surface of the compost in each tray and six seeds were sown in each furrow (total twelve seeds per tray). Some trays were sown with 24 seeds, in which case three furrows were made and 8 seeds sown per furrow.
(§9) In each test each tray contained either the seed of one mutant or of the UE95 control for each herbicide application rate and for the untreated control.
(§10) Five different types of ALS-inhibitor herbicides were tested on the mutants plus imazethapyr (PURSUIT) as a comparison. Four rates of each were applied; approximately 0.1x, 0.5x, 1x and 4x the estimated field rates for each herbicide. The rates are the same for mutant 3 to 10 but higher rates for chlorimuron (CLASSIC) and lower rates for chlorsulfuron (GLEAN) were applied to mutants 1 and 2.
(§11) The rates of application used in the screening tests were as follows: chlorimuron (CLASSIC) 4,20,40,160 g/Ha (mutants 1 and 2); and, 8,40,80,320 g/Ha (mutants 3 to 10); chlorsulfuron (GLEAN) 5,25,50,200 g/Ha (mutants 1 and 2); and, 1,5,10,40 g/Ha (mutants 3 to 10); imazaquin (SCEPTER) 30,150,300,1200 g/Ha; triazolopyrimidine 5,25,50,200 g/Ha; phenoxypyrimidine 10,50,100,400 g/Ha; and, imazethapyr (PURSUIT) 30,150,300,1200 g/Ha The triazolopyrimidine and phenoxypyrimidine were formulated in an adjuvant wetting agent known as JF5969 and diluted with water to make a final concentration of 10% JF5969. The remaining compounds were diluted with water only.
(§12) The spray jet and parameters were as decribed above under "SCREENING". After spraying, the seeds were covered with 0.5 litre of compost and firmed down flat (2.5cm covering) and grown under the conditions described under "SCREENING" above.
(§13) Visual assessments were made of the plants after four weeks growth. Each plant was scored on a scale of zero to 5 and the height measured from soil surface to the tallest leaf tip. The scoring scale was as follows: 0 - 0 to 10% damage (little or no herbicidal effect) 1 - 11 to 25% damage 2 - 26 to 50% damage 3 - 51 to […] 4 - 81 to 95% damage 5 - 96 to 100% damage (complete death of the plant) In carrying out these assessments, plants which were obviously of the sensitive phenotype were ignored (approximately 50% of the plants). […]

[3] = target: ALS extracted from leaves of MUTANT 2 (homozygous); assay: ALS enzyme assay, homozygous Mutant 2; assay type: biochemical, Zea mays; settings: for IC50: ALS of homozygous Mutant 2, read-out: ID50% Mutant; for Fold Increase: fold increase in resistance vs wild type, homozygous Mutant 2, 30 min
Method: as §2, §3, §4, §5, §6

[4] = tested on: ALS enzyme extracted from Mutant 9 (heterozygous); assay: ALS enzyme assay, heterozygous Mutant 9; assay type: biochemical, Zea mays; settings: for resistance group, Enzyme Assay: Mutant 9, groups Strong, Intermediate, Weak, Zero; for Fold Increase: fold increase in resistance vs wild type, heterozygous Mutant 9, 30 min; for IC50: ALS of heterozygous Mutant 9, read-out: ID50% (the source's name)
Method: as §1, §2, §3, §4, §5, §6

Mutant 6 plants = assay: Cross-resistance testing (glasshouse dose response), Mutant 6; assay type: in vivo, Zea mays; settings: pre-emergence spray, assessed after four weeks growth
Text: as §7, §8, §9, §10, §11, §12, §13

[5] = herbicide concentration giving 50% inhibition of ALS activity

COc1cc(Cl)nc(NC(=O)NS(=O)(=O)c2ccccc2C(=O)O)n1 [Chlorimuron, chlorimuron]
IC50 [1]: 3.7 nM | IC50 [2]: 15 nM | resistance group, Enzyme Assay [2]: Weak | Fold Increase [2]: 4 | resistance group, Dose Response (Mutant 3 plants): Weak | IC50 [3]: 20 nM | Fold Increase [3]: 5.4 | resistance group, Enzyme Assay [4]: Weak | Fold Increase [4]: 3 | resistance group, Dose Response (Mutant 6 plants): Zero

COc1nc(C)nc(NC(=O)NS(=O)(=O)c2ccccc2Cl)n1 [Chlorsulfuron, chlorsulfuron]
IC50 [1]: 18.5 nM | IC50 [2]: 35 nM | resistance group, Enzyme Assay [2]: Weak | Fold Increase [2]: 2 | resistance group, Dose Response (Mutant 3 plants): Intermediate | IC50 [3]: 40 nM | Fold Increase [3]: 2.2 | IC50 [4]: 50 nM | resistance group, Enzyme Assay [4]: Weak | Fold Increase [4]: 3 | resistance group, Dose Response (Mutant 6 plants): Zero

CC(C)C1(C)N=C(c2nc3ccccc3cc2C(=O)O)NC1=O (stereo not shown) [Imazaquin, imazaquin]
IC50 [1, 5]: 600 nM | IC50 [2]: 1500 nM | resistance group, Enzyme Assay [2]: Weak | Fold Increase [2]: 2 | resistance group, Dose Response (Mutant 3 plants): Weak | IC50 [3]: 40000 nM | Fold Increase [3]: 66 | IC50 [4]: 50000 nM | resistance group, Enzyme Assay [4]: Strong | Fold Increase [4]: 83 | resistance group, Dose Response (Mutant 6 plants): Weak

CCc1cnc(C2=NC(=O)C(C)(C(C)C)N2)c(C(=O)O)c1 (stereo not shown) [Imazethapyr, 5-ethyl-2-(5-iso-propyl-5-methyl-4-oxo-2-imidazolin-2-yl) nicotinic acid]
IC50 [1, 5]: 1500 nM | IC50 [2]: 2500 nM | resistance group, Enzyme Assay [2]: Weak | Fold Increase [2]: 2 | resistance group, Dose Response (Mutant 3 plants): Weak | IC50 [3]: 400000 nM | Fold Increase [3]: 267 | IC50 [4]: 425000 nM | resistance group, Enzyme Assay [4]: Strong | Fold Increase [4]: 283 | resistance group, Dose Response (Mutant 6 plants): Intermediate
